Patent US12678507B2, “Protein tyrosine kinase 6 (PTK6) degradation / disruption compounds and methods of use” (Icahn School of Medicine at Mount Sinai, priority 2018, dated 2026)

Tests used:
PTK6 [1] = target: T1, PTK6 (Homo sapiens, UniProt Q13882); test: Western blot of PTK6 protein levels in MDA-MB231 cells; assay type: cell-based; details: MDA-231 (MDA-MB231) cells, 500 nM, 24 hours, Western blot (FIGS. 3-5)
T1 construct: endogenous in cells; host or cells: MDA-MB231 cells (ATCC)
Description: FIGS. 2-5. Effects of exemplary compounds on reducing PTK6 protein levels in breast cancer cells. Triple negative MDA-MB231 cells were treated for 24 hours with 500 nM, 2 uM or 2.5 uM of test compound and lysed. Proteins were resolved by SDS/PAGE and immunoblotted with antibody to PTK6 (Santa Cruz, Cell Signaling) or GAPDH loading control (Cell Signaling).
FIG. 13. PTK6 degraders suppress PTK6 expression. MDA-MB231 cells were treated with compounds (500 nM or 1 uM) for 24 hours in monolayer cultures. Cells were lysed and lysates were probed with anti-PTK6 antibody.
MDA-MB231 cells were treated with DMSO or indicated compounds at 2.5 uM, 2 uM or 500 nM for 24 hours.
MDA-MB231 cells were treated with compounds (500 nM or 1 uM) for 24 hours in monolayer cultures. Cells were lysed and lysates were probed with anti-PTK6 antibody.
(§1) Cells were lysed in 1% NP-40 lysis buffer containing NaF, Na3VO4, Leupeptin, PMSF, aprotinin, and phosphatase inhibitor (PhosSTOP, Roche) as described previously (Irie et al., 2010). Cleared cell lysates were stored at −80° C. and were analyzed by western analysis as described previously (Irie et al., 2010).

MDA-MB231 cells = test: 3D Matrigel culture of MDA-MB231 triple negative breast cancer cells (growth, invasive branching, viability); assay type: cell-based; details: 1 μM, 3 days, 3D cultures (FIG. 6)
Description: FIG. 6a. PTK6 degraders, but not kinase activity inhibitor suppress viability in 3D cultures. MDA-MB231 triple negative breast cancer cells were seeded into 3D Matrigel cultures (4×10^3 cells/well) and treated with indicated PTK6 degraders, negative control compounds or PTK6 kinase activity inhibitor at 1 uM for 5 days with re-feeding of compound after 3 days in culture. Viability was assessed using 3D Cell Titer glo (Promega). FIG. 6b. Expression of PTK6 in cells treated with PTK6 degraders, negative control compounds or PTK6 kinase activity inhibitor was assessed after 24 hour treatment in monolayer cultures with 1 uM of compound. Cells were lysed and proteins were resolved and probed with anti-PTK6 antibody (Cell Signaling)
FIG. 12a. […] Expression of PTK6 in cells treated with PTK6 degraders, negative control compounds or PTK6 kinase activity inhibitor was assessed after 24 hour treatment in monolayer cultures with 1 uM of compound. […] Viability was assessed using 3D Cell Titer glo (Promega). […]
MDA-MB231 triple negative breast cancer cells were seeded into 3D Matrigel cultures (4×10^3 cells/well) and treated with indicated PTK6 degraders, negative control compounds or PTK6 kinase activity inhibitor at 1 uM for 6 days with re-feeding of compound after 3 days in culture (FIG. 12B). Viability was assessed using 3D Cell Titer glo (Promega). […]

MCF7 cells = test: 3D Cell Titer Glo viability of MCF7 ER+ breast cancer cells; assay type: cell-based; details: 0, 1, 2 and 5 μM, 4 days, 3D Cell Titer Glo (FIG. 7)
Description: FIG. 7a. PTK6 degrader treatment suppresses growth of ER+ breast cancer cells. ER+ breast cancer cells (MCF-7) were treated with indicated concentrations of top candidate degraders, negative control compounds or PTK6 kinase activity inhibitor for 24 hours, lysed and proteins were resolved by SDS-PAGE. PTK6 expression was interrogated by Western analysis. FIG. 7b. MCF-7 cells were seeded into 3D Matrigel cultures and treated with indicated PTK6 degraders or PTK6 kinase inhibitor for 4 days. Viability was quantified using 3-D Cell Titer glo (Promega).
MCF7 cells were treated with YX39-103, YX39-105, and compound 21d at 0, 1, 2 and 5 μM for 4 days using 3D Cell Titer Glo (Promega) assay conditions.
MDA-MB231, MCF-7, OV2008 and Hey C2 cells (3,000 cells) were added to 8-well chamber slides (BD Biosciences) coated with 50 μl of growth factor-reduced Matrigel™ Matrix basement membrane (Corning). Treatment with degrader was begun later the same day. Media was replaced every 3 days. Cells were imaged using the Axiovert 25 inverted microscope (Carl Zeiss AB). CellTiter-Glo 3D Cell Viability Assay (Promega) was used to quantitate viability of cells grown in Matrigel™ in 96-well plates.

CP70 cells = test: 3D culture viability of platinum resistant ovarian cancer cells CP70; assay type: cell-based; details: 2 uM, 6 days, 3D culture (FIG. 8)
Description: FIG. 8. Treatment with PTK6 degraders, but not kinase activity inhibitor, suppress viability of chemotherapy-resistant ovarian cancer cells (CP70). Cells were seeded into 3D Matrigel cultures and treated with compounds (2 uM) for 6 days. Viability was assessed using 3D Cell Titre glo assay (Promega)
Platinum resistant ovarian cancer cells CP70 were treated with PTK6 degrader or kinase inhibitor P21d (2 uM) for 6 days in 3D culture. Viability after 6 days was assessed by 3D Cell Titer glo.

TNBC cells = details: compared with PTK6 shRNA; cited from earlier work
[2] = compared with shRNA, all cell lines evaluated; cited from earlier work
PTK6 [3] = target: T1, PTK6; test: PTK6 degradation after MG132 proteasome inhibitor pretreatment (Western); assay type: cell-based; details: MDA-MB231 cells, MG132 10 uM 2 hours, then degrader 4 hours (FIG. 9)
Description: FIG. 9. PTK6 degrader suppresses PTK6 expression in a proteasome-dependent manner. MDA-MB231 cells (left) or OV2008 cells (right) were pre-treated with DMSO or MG-132 (10 uM) for two hours, then treated for an additional 4 hours with DMSO or PTK6 degrader at the indicated concentrations.
MDA-MB231 cells were pre-treated with MG132 (10 uM) or DMSO for 2 hours, then treated for additional 4 hours with PTK6 degrader YX39-105 or DMSO. Cells were lysed and expression of PTK6 was assessed by Western analysis.
as §1

PTK6 [4] = target: T1, PTK6; test: PTK6 degradation after PTK6 kinase inhibitor P21d pretreatment (Western); assay type: cell-based; details: MDA-MB231 cells, P21d 5 uM 2 hours, then degrader 24 hours (FIG. 10)
Description: FIG. 10. PTK6 kinase activity inhibitor pre-treatment prevents PTK6 degrader-dependent suppression of PTK6 expression. MDA-MB231 cells in monolayer cultures were pre-treated with DMSO or PTK6 kinase activity inhibitor (5 uM), then treated for an additional 24 hours with PTK6 degrader, YX39-105. Cells were lysed and expression of PTK6 was assessed by Western analysis.
MDA-MB231 cells pretreated with DMSO or PTK6 kinase activity inhibitor, P21d, (5 uM) for 2 hours were subsequently treated with PTK6 degrader YX39-105 for 24 hours. Expression of PTK6 was assessed by Western analysis.
as §1

T1 sequence (Q13882 whole entry): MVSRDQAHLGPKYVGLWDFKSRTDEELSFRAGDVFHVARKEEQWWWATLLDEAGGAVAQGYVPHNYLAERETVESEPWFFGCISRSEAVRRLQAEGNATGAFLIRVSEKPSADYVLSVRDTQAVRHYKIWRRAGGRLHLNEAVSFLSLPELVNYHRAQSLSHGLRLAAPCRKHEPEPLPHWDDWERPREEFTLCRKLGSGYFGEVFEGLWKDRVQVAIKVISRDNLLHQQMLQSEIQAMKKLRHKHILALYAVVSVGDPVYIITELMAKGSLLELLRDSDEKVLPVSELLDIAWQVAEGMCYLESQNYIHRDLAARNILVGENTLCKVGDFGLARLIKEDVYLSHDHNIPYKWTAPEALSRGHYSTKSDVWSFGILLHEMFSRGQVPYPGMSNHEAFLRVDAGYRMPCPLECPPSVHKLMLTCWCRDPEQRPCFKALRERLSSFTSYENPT

Cc1ncsc1-c1ccc(CNC(=O)[C@@H]2C[C@@H](O)CN2C(=O)[C@@H](NC(=O)CCCCCCNC(=O)CN2CCN(C(=O)c3ccc(Nc4nc(C5CC5)cn5c(-c6cn[nH]c6)cnc45)c(F)c3)CC2)C(C)(C)C)cc1 [YX39-103, (2S,4R)-1-((S)-2-(7-(2-(4-(4-((6-cyclopropyl-3-(1H-pyrazol-4-yl)imidazo[1,2-a]pyrazin-8-yl)amino)-3-fluorobenzoyl)piperazin-1-yl)acetamido)heptanamido)-3,3-dimethylbutanoyl)-4-hydroxy-N-(4-(4-methylthiazol-5-yl)benzyl)pyrrolidine-2-carboxamide]
reducing PTK6 protein levels / suppress PTK6 expression (PTK6 [1]): effective in reducing PTK6 protein levels | growth and invasive branching in 3D cultures (MDA-MB231 cells): significantly suppressed growth and invasive branching | viability of MCF7 cells (MCF7 cells): significantly impaired viability of MCF7 cells in a dose-dependent manner | viability of chemotherapy-resistant ovarian cells (CP70) (CP70 cells): Suppressed Viability

O=C(c1ccc(Nc2nc(C3CC3)cn3c(-c4cn[nH]c4)cnc23)c(F)c1)N1CCOCC1 [compound 21d]
EMT regulation of TNBC cells (TNBC cells): phenocopied the effects of PTK6 shRNA | 3D growth [2]: did not consistently phenocopy the effects of shRNA

Cc1ncsc1-c1ccc(CNC(=O)[C@@H]2C[C@@H](O)CN2C(=O)[C@@H](NC(=O)CCCCCCCCNC(=O)CN2CCN(C(=O)c3ccc(Nc4nc(C5CC5)cn5c(-c6cn[nH]c6)cnc45)c(F)c3)CC2)C(C)(C)C)cc1 [YX39-105, (2S,4R)-1-((S)-2-(9-(2-(4-(4-((6-cyclopropyl-3-(1H-pyrazol-4-yl)imidazo[1,2-a]pyrazin-8-yl)amino)-3-fluorobenzoyl)piperazin-1-yl)acetamido)nonanamido)-3,3-dimethylbutanoyl)-4-hydroxy-N-(4-(4-methylthiazol-5-yl)benzyl)pyrrolidine-2-carboxamide]
reducing PTK6 protein levels / suppress PTK6 expression (PTK6 [1]): effective in reducing PTK6 protein levels | growth and invasive branching in 3D cultures (MDA-MB231 cells): significantly suppressed growth and invasive branching | viability of MCF7 cells (MCF7 cells): significantly impaired viability of MCF7 cells in a dose-dependent manner | viability of chemotherapy-resistant ovarian cells (CP70) (CP70 cells): Suppressed Viability | PTK6 degradation with MG132 pretreatment (PTK6 [3]): Prevents PTK6 from being Degraded | PTK6 degradation with PTK6 inhibitor pretreatment (PTK6 [4]): Prevents PTK6 from being Degraded

Cc1ncsc1-c1ccc(CNC(=O)[C@@H]2C[C@@H](O)CN2C(=O)[C@@H](NC(=O)COCCOCC(=O)NCCN2CCN(C(=O)c3ccc(Nc4nc(C5CC5)cn5c(-c6cn[nH]c6)cnc45)c(F)c3)CC2)C(C)(C)C)cc1 [YX79-65, (2S,4R)-1-((S)-2-(tert-butyl)-14-(4-(4-((6-cyclopropyl-3-(1H-pyrazol-4-yl)imidazo[1,2-a]pyrazin-8-yl)amino)-3-fluorobenzoyl)piperazin-1-yl)-4,11-dioxo-6,9-dioxa-3,12-diazatetradecanoyl)-4-hydroxy-N-(4-(4-methylthiazol-5-yl)benzyl)pyrrolidine-2-carboxamide]
reducing PTK6 protein levels / suppress PTK6 expression (PTK6 [1]): potently suppress PTK6 expression

Cc1ncsc1-c1ccc(CNC(=O)[C@@H]2C[C@@H](O)CN2C(=O)[C@@H](NC(=O)CCCCCCCCCNC(=O)CN2CCN(C(=O)c3ccc(Nc4nc(C5CC5)cn5c(-c6cn[nH]c6)cnc45)c(F)c3)CC2)C(C)(C)C)cc1 [YX39-106, (2S,4R)-1-((S)-2-(10-(2-(4-(4-((6-cyclopropyl-3-(1H-pyrazol-4-yl)imidazo[1,2-a]pyrazin-8-yl)amino)-3-fluorobenzoyl)piperazin-1-yl)acetamido)decanamido)-3,3-dimethylbutanoyl)-4-hydroxy-N-(4-(4-methylthiazol-5-yl)benzyl)pyrrolidine-2-carboxamide]
reducing PTK6 protein levels / suppress PTK6 expression (PTK6 [1]): effective in reducing PTK6 protein levels

Cc1ncsc1-c1ccc(CNC(=O)[C@@H]2C[C@@H](O)CN2C(=O)[C@@H](NC(=O)CCCCCCC(=O)NCCN2CCN(C(=O)c3ccc(Nc4nc(C5CC5)cn5c(-c6cn[nH]c6)cnc45)c(F)c3)CC2)C(C)(C)C)cc1 [YX79-59, N^1-(2-(4-(4-((6-cyclopropyl-3-(1H-pyrazol-4-yl)imidazo[1,2-a]pyrazin-8-yl)amino)-3-fluorobenzoyl)piperazin-1-yl)ethyl)-N^8-((S)-1-((2S,4R)-4-hydroxy-2-((4-(4-methylthiazol-5-yl)benzyl)carbamoyl)pyrrolidin-1-yl)-3,3-dimethyl-1-oxobutan-2-yl)octanediamide]
reducing PTK6 protein levels / suppress PTK6 expression (PTK6 [1]): potently suppress PTK6 expression
